Data as given in paper PMC11941790, “Reactions of Plasmodium falciparum Type II NADH: Ubiquinone Oxidoreductase with Nonphysiological Quinoidal and Nitroaromatic Oxidants” (International Journal of Molecular Sciences, 2025).

What was measured:
[1] = biological target: T1, type II NADH:ubiquinone oxidoreductase (PfNDH2) (Plasmodium falciparum, UniProt Q8I302); assay: steady-state kinetics, competitive inhibition vs NADH; assay type: biochemical
T1 construct: gene PF3D7_0915000; His-tagged PfNDH2 (pET45, E. coli)
T1 sequence (Q8I302 31-533): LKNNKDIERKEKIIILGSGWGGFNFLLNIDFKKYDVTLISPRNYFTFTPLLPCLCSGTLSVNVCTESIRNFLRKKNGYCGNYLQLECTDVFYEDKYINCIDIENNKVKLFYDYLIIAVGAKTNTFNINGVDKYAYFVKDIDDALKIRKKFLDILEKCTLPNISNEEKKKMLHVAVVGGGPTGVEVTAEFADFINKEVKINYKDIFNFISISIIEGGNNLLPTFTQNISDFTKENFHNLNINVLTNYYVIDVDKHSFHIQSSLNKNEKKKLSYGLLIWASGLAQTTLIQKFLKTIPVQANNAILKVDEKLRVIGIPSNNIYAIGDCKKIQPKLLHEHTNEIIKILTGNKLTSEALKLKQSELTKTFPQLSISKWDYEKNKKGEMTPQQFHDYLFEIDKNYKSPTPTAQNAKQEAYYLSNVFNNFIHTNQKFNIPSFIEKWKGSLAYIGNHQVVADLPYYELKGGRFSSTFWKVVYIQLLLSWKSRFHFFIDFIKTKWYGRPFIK

[2] = biological target: T1, type II NADH:ubiquinone oxidoreductase (PfNDH2); assay: steady-state kinetics, competitive product inhibition vs NADH with naphthazarin as acceptor; assay type: biochemical

Row | SMILES | Ki [1] [mM] | Ki [2] [mM]
1 | Nc1ncnc2c1ncn2[C@@H]1O[C@H](COP(=O)(O)OP(=O)(O)OC[C@H]2OC(O)[C@H](O)[C@@H]2O)[C@@H](O)[C@H]1O (some centres unmarked) [ADP-ribose] | 2.5 ± 0.3 | 
2 | NC(=O)c1ccc[n+]([C@@H]2O[C@H](COP(=O)([O-])OP(=O)(O)OC[C@H]3O[C@@H](n4cnc5c(N)ncnc54)[C@H](O)[C@@H]3O)[C@@H](O)[C@H]2O)c1 [NAD^+] |  | 3.7 ± 0.4
